Data: article PMC6770320 (Cancers, 2019)
One block for each compound: values may come before it.

Legend:
[1] = target: T1, multidrug resistance protein 2 (MRP2) (Homo sapiens, UniProt Q92887); experiment: inhibition of oxaliplatin-stimulated ([…]) vanadate-sensitive ATPase in membrane vesicles; […] reduction at […]; format: cell-based
T1 construct: gene ABCC2; membrane vesicles from Sf9 cells overexpressing human MRP2

[2] = target: T1, multidrug resistance protein 2 (MRP2); experiment: inhibition of oxaliplatin-stimulated ([…]) vanadate-sensitive ATPase in membrane vesicles; […] reduction at […], no apparent effect at […]; format: cell-based
[3] = target: T1, multidrug resistance protein 2 (MRP2); experiment: vanadate-sensitive ATPase stimulation in Sf9/MRP2 membrane vesicles, with control vesicles; format: biochemical
Source text: vanadate-sensitive ATPase stimulation in Sf9/MRP2 membrane vesicles, with control vesicles on multidrug resistance protein 2 (MRP2) | oxaliplatin stimulated the vanadate-sensitive MRP2 ATPase activities in a concentration-dependent manner

T1 sequence (Q92887 whole entry): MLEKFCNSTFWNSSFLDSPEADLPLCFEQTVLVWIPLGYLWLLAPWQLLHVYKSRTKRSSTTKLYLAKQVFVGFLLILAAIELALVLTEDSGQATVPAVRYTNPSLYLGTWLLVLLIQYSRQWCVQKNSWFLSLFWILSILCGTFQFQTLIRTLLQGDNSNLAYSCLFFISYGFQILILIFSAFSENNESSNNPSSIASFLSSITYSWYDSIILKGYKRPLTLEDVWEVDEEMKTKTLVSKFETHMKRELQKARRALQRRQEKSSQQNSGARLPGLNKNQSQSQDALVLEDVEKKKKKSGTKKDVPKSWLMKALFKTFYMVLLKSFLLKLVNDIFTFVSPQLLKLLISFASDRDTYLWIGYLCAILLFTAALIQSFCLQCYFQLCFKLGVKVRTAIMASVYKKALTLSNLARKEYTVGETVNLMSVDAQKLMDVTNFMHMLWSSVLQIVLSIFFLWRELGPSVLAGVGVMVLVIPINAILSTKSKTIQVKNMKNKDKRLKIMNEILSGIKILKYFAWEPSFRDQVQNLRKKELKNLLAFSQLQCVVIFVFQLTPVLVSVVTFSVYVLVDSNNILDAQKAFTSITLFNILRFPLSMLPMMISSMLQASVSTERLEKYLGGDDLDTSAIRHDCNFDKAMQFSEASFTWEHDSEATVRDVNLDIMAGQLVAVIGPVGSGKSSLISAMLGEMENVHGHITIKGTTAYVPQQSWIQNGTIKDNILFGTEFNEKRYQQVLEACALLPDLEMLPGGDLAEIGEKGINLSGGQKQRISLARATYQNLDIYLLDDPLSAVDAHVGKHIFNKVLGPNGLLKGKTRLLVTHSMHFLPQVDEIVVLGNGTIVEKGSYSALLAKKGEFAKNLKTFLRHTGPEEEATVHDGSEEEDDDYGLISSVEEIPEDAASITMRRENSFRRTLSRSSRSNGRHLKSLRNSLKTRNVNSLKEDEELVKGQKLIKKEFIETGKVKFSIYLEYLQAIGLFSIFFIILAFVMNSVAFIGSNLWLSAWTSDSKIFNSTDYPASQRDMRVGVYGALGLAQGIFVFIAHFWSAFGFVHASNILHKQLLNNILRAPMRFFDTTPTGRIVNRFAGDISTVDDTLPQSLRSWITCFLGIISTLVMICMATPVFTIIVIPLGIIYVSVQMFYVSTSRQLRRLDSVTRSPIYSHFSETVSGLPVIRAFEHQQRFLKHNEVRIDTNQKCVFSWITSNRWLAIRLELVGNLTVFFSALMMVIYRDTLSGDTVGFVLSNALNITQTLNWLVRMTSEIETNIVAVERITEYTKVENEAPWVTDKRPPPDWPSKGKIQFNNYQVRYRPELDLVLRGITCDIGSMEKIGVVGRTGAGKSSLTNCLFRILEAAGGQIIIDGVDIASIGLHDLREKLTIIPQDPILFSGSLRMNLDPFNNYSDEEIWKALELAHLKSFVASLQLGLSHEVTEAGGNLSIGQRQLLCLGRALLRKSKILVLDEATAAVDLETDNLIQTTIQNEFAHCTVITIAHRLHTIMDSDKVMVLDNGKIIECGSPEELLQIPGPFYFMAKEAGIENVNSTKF

SMILES: CCc1oc2ccccc2c1C(=O)c1cc(Br)c(O)c(Br)c1 [benzbromarone]
- inhibition at 100 µM [1]: 90%

- inhibition at 60 µM [2]: 40%
SMILES: O=c1c(O)c(-c2cc(O)c(O)c(O)c2)oc2cc(O)cc(O)c12 [myricetin]

SMILES: O=C1[O][Pt]2([NH][C@@H]3CCCC[C@H]3[NH]2)[O]C1=O [oxaliplatin]
- EC50 [3]: 8.3 ± 0.7 µM
